Measured values taken from patent US6893659B2, “Pharmaceutical composition for oral administration of a N-piperidino-3- pyrazolecarboxamide derivative, its salts and their solvates” (Sanoti-Synthelabo, priority 1997, dated 2005).
Converted amounts (≈) assume the structure as drawn. Counter-ions that a name gives are not always drawn.

Experiments:
[1] = Instantaneous solubility of the compounds of formula (I) in aqueous media; format: physicochemical; conditions: for Solubility, dissolution medium Acetic buffer pH 7.5 / Solubility, dissolution medium Phosphate buffer pH 7.5 / Solubility, dissolution medium Water / Solubility, dissolution medium Water + 10% ethanol: instantaneous solubility, room temperature
Experimental: (§1) Furthermore, the hydrophobic character of the compounds of formula (I) is very strongly pronounced. […] These compounds are soluble in alcohols and glycols and more particularly in polyethylene glycols (PEG).
The solubilities of the compounds of formula (I) are measured in different aqueous media. The instantaneous solubility is evaluated at room temperature by quantitative analysis. The results, expressed in μg per ml, are collated in Table 1 below: […]

[2] = Solubility of compound A in solvents and after dilution of the solutions in water; format: physicochemical; conditions: for solubility: organic solvent or mixture
Experimental: as §1
However, when the solutions obtained with an alcohol or a glycol are diluted in an aqueous medium, the compound of formula (I) precipitates because of its strongly hydrophobic character.
Measurements were also made of the solubility of compound A in different solvents (Table 2) and after dilution in water of the solutions formed (Table 3).

[3] = Wettability by H. Mohamad's method; format: physicochemical
Text: as §1
The wettability of compound A was studied in different formulations using the method of H. Mohamad et al., Labo Pharma. Problèmes techniques, 1984, 32 (346), 284-289.

[4] = Kinetics of dissolution in a gastric medium; format: physicochemical; conditions: 40 mg in one liter, phosphate-citrate buffer pH 3, 37° C., no surfactant
Experimental: The kinetics of dissolution of different formulations in a gastric medium were studied at 37° C. in a phosphate-citrate buffer of pH 3 for 30 minutes. […]
6 tests were carried out for each formulation and the amount of compound A dissolved in the medium was measured every 5 minutes.
Table 7 indicates the mean value of the percentage of compound A dissolved and the standard deviation relative to this value for the different formulations described in Table 6.

[5] = Intestinal transepithelial passage across Caco-2 monolayer; format: in vitro ADME; conditions: human, Caco-2; introduced in Hank's medium pH 6.5, in solution in DMSO; apical to basal; read-out: Coefficient of permeability P
Experimental: (§2) The permeability of the epithelium of the compounds is evaluated using the Caco-2 cell line, which has the characteristic of undergoing differentiation in vitro to form an epithelial monolayer (Crit. Rev. Ther. Drug Carrier System, 1991, 8 (4), 105-330). In this model the permeability of compound A dissolved in dimethyl sulfoxide (DMSO) is high, showing that it has a good ability to be absorbed by the intestine when it is in solution.
(§3) Caco-2 cells are cultured onto microporous polycarbonate filters covered with collagen. The cellular monolayer formed on the filter then makes it possible to separate an apical compartment (imitating the intestinal lumen) from a basal compartment (imitating the blood circulation).
(§4) The composition containing the compound to be studied is placed on the apical side and the passage of this compound, dispersed or solubilized in Hank's medium, through this cellular barrier is evaluated by measuring the kinetics of its appearance on the basal side. This aqueous medium, of pH 6.5, has the following composition: NaCl=8.0 g/l; KCl=0.4 g/l; CaCl2=0.19 g/l; MgCl2=0.1 g/l; MgSO4=0.1 g/l; Na2HPO4=0.09 g/l; KH2PO4=0.06 g/l; NaHCO3=0.35 g/l; glucose=1 g/l; phenol red=0.01 g/l.
(§5) The coefficient of permeability P, in cm/s, is then determined; this characterizes the rate of passage of the molecule through the membrane, namely: P=(da/dt).(1/A.Co) • where: • da/dt=variation of the amount of test compound passing through the cellular monolayer as a function of time (mol/s) • A=surface area of the monolayer (cm^2) • Co=initial concentration of the test compound (mol/l)

Caco-2 cells = assay: as above; format: in vitro ADME
Experimental: as §2, §3, §4, §5

[6] = ethanol solution, dilution in water 10%
[7] = polyethylene glycol 400 solution, dilution in water 30%

Row | Structure (SMILES) | Solubility, dissolution medium Acetic buffer pH 7.5 [1] [μg per ml] | Solubility, dissolution medium Phosphate buffer pH 7.5 [1] [μg per ml] | Solubility, dissolution medium Water ([1]; water) [μg per ml] | Solubility, dissolution medium Water + 10% ethanol [1] [μg per ml] | further results
1 | Cc1c(C(=O)NN2CCCCC2)nn(-c2ccc(Cl)cc2Cl)c1-c1ccc(Cl)cc1 [Hydrochloride (solvated)] | 54 | 0.5 | 37 | 10 | –
2 | Cc1c(C(=O)NN2CCCCC2)nn(-c2ccc(Cl)cc2Cl)c1-c1ccc(Cl)cc1 [Hydrogensulfate] | 30 | 0.9 | 13 | 38 | –
3 | Cc1c(C(=O)NN2CCCCC2)nn(-c2ccc(Cl)cc2Cl)c1-c1ccc(Cl)cc1 [Methanesulfonate (solvated)] | – | – | 39 | 48 | –
4 | Cc1c(C(=O)NN2CCCCC2)nn(-c2ccc(Cl)cc2Cl)c1-c1ccc(Cl)cc1 [Paratoluenesulfonate] | 2.4 | 0.2 | 3.9 | 7.3 | –
5 | Cc1c(C(=O)NN2CCCCC2)nn(-c2ccc(Cl)cc2Cl)c1-c1ccc(Cl)cc1 [Phosphate] | 0.9 | 0.7 | 1.3 | 7.5 | –
6 | Cc1c(C(=O)NN2CCCCC2)nn(-c2ccc(Cl)cc2Cl)c1-c1ccc(Cl)cc1 [Solvated compound A] | 1.2 | – | 0.7 | 0.9 | –
7 | Cc1c(C(=O)NN2CCCCC2)nn(-c2ccc(Cl)cc2Cl)c1-c1ccc(Cl)cc1 [compound A, N-Piperidino-5-(4-chlorophenyl)-1-(2,4-dichlorophenyl)-4-methylpyrazole-3-carboxamide] | – | – | – | – | Solubility, dissolution medium Water + 10% ethanol ([1]; listed as Compound A (base)): 1.2 μg per ml; Solubility in water (in words) ([1]; water, irrespective of the pH): practically insoluble; Amount of compound A dissolved, measured [2, 6]: 1.2.10^−3 mg/ml; Amount of compound A dissolved, theoretical [2, 6]: 3.5 mg/mL; solubility ([2]; solvent Ethanol): 35 mg/mL (≈ 75.5 mM); solubility ([2]; solvent Polyethylene glycol 400): 50 mg/mL (≈ 108 mM); Amount of compound A dissolved, measured [2, 7]: 3 µg/mL; Amount of compound A dissolved, theoretical [2, 7]: 15 mg/mL; Dilution in water ([2]; solution in polyethylene glycol 1500 at 60° C.): not dilutable; Solubility of compound A ([2]; solvent Polyethylene glycol 1500 at 60° C.): 80 mg/g; Wettability in water (in words) [3]: not wettable; Dissolution in the dissolution medium with nothing else added [4]: no dissolution takes place; Papp A→B [5]: 9.6 ×10⁻⁶ cm/s; Relative rate of passage (Caco-2 cells; Caco-2 monolayer, Hank's medium pH 6.5, relative to compound A in suspension in Hank's medium (=1)): 1; Permeability / ability to pass through the epithelium (in words) (Caco-2 cells; compound dissolved in DMSO): very good ability and high
